Test results from ChEMBL document CHEMBL1129226, “Synthesis of conformationally restricted progestational 13-ethylsteroids” (1997).

Tested on: Oryctolagus cuniculus
Test: In vivo activity using McPhail test after oral dose
Format: functional

Question: With C#C[C@]1(O)CCC2C3CCC4=CC(=O)CCC4C3CCC21CC (stereo partly drawn) as the compound, how does the ED2 read?
Answer: 0.04 mg/kg

Question: C1=C2CC3(CCC2C2C(C1)C1CCC4(OCCO4)[C@@]14C[C@@H]2C[C@]41CO1)OCCO3 (stereo partly drawn) was tested. Which ED2 did it give?
Answer: >4 mg/kg

Question: How did the ED2 turn out when C#C[C@]1(O)CCC2C3CCC4=CC(=O)CCC4C3[C@H]3CC(=C)[C@]21C3 (stereo partly drawn) was run?
Answer: 1 mg/kg

Question: With C#C[C@]1(O)CCC2C3CCC4=CC(=O)CCC4C3C(=C)CC21CC (stereo partly drawn) as the compound, how does the ED2 read?
Answer: 0.015 mg/kg

Question: With C#C[C@]1(O)CC[C@H]2[C@@H]3CCC4=CC(=O)CC[C@@H]4[C@H]3CC[C@@]21C [NORETHINDRONE] as the compound, how does the ED2 read?
Answer: ~0.5 mg/kg

Question: With C#C[C@]1(O)CCC2C3CCC4=CC(=O)CCC4C3[C@H]3C[C@@H](C)[C@]21C3 (stereo partly drawn) as the compound, how does the ED2 read?
Answer: 0.125 mg/kg

Question: For C#C[C@]1(O)CCC2C3CCC4=CC(=O)CCC4C3[C@H]3C[C@H](C)[C@]21C3 (stereo partly drawn), which ED2 is on record?
Answer: ~0.032 mg/kg

Question: Which ED2 does the source give for C#C[C@]1(O)C=CC2C3CCC4=CC(=O)CCC4C3CCC21CC (stereo partly drawn) here?
Answer: 0.008 mg/kg
